Key:
[1] = system: MOG-induced IL-17 in primary splenocytes; test: IL-17 Quantikine ELISA in primary splenocytes of EAE mice; assay type: cell-based; conditions: exogenous compound 30 μM; for decrease of IL-17 in response to exogenous compound: splenocytes of compound-treated EAE mice (100 mg/kg); for reduction in the amount of IL-17: splenocytes of vehicle-treated EAE mice, MOG 25 μg/mL, 48 hrs
Method: On day 21, EAE mice were sacrificed by cervical dislocation and spleens were removed aseptically. The removed spleens were then cut with sterilized scissors and strained through […] mesh (BD Bioscience) with a plunger of 5 mL syringe (BD Bioscience) in 9 mL of RPMI 1640 (Invitrogen) with 100 U/mL penicillin and 100 μg/mL streptomycin (Sigma). The cell mixture was then added to 9 mL of Lympholyte (Cedarlane Laboratories) for gradient separation of splenocytes from red bloods cells by centrifugation at 1500 g for 20 min. After the centrifugation, the lympholyte layer containing splenocytes were carefully removed and washed with 10 mL of RPMI 1640 at 800 g for 10 min for three times. The isolated splenocytes were seeded onto different plate format and cultured with RPMI 1640 medium (Invitrogen) supplement with 10% heat inactivated fetal bovine serum (Invitrogen) and 100 U/mL penicillin and 100 μg/mL streptomycin at 37° C. CO2 incubator.
Splenocytes from EAE mice were cultured at the density of 1×10^6 cells in 12-well plates (Falcon) in the absence or presence of the MOG peptide (25 μg/mL) (Hooke Laboratories), DA001 and DA021 (30 μM) with RPMI 1640 medium (Invitrogen) supplement with 10% heat inactivated fetal bovine serum (Invitrogen) and 100 U/mL penicillin and 100 μg/mL streptomycin (Sigma) for 48 h. After 48 h, the supernatants were collected by pelleting the cells at 300 g for 10 min at 4° C. 50 μL of the each sample was added to the microtiter plate provided by the manufacturer of the Quantikine ELISA assay kit (R and D systems). Additional 50 μL of assay diluents buffer was added and incubated at room temperature for 2 h. […] Subsequently, 100 μL of stop solution was added to each well and the plate was read in 450 nm wavelength on a microplate reader (Dynex Revelation 2.2).
(§1) Cells were cultured in RPMI 1640 medium supplement with 10% heat inactivated fetal bovine serum and penicillin/streptomycin, in the absence or presence of MOG (25 μg/mL, Ex) with or without DA001 or DA021 (30 μM, Ex). […] The amount of IL-17 was calculated based on the standard curve established during the assay. […]
as §1, with “DA001” for “DA001 or DA021”
as §1, with “without” for “without DA001 or”

[2] = system: C57BL/6 mice immunized with MOG; test: Experimental autoimmune encephalomyelitis (EAE) behavioral scores; assay type: in vivo; conditions: 100 mg/kg oral daily from day of immunization
Method: FIG. 15 illustrates that DA001 improves the behavioral scores of mice with experimental autoimmune encephalomyelitis. C57BL/6 mice were immunized subcutaneously at both sides of their hind limbs with myelin oligodendrocyte glycoprotein (MOG)/Complete Freund's Adjuvant (CFA) kit (Hooke Laboratories) and performed as indicated in the manufacturer's instruction. Albumin/CFA kit (Hooke Laboratories) were used as an immunization control. Oral administration of DA001 at 100 mg/kg was given daily starting from the day of immunization. The vehicle (water) was given to mice injected with MOG or albumin daily via oral administration. Animals were weighed and monitored daily and behavioral impairment was quantified based on the clinical scale. The graph presented here is a composite of four separate EAE trials. **=p≦0.01.
FIG. 16 illustrates that DA002 improves the behavioral scores of mice with experimental autoimmune encephalomyelitis. C57BL/6 mice were immunized subcutaneously at both sides of their hind limbs with myelin oligodendrocyte glycoprotein (MOG)/Complete Freund's Adjuvant (CFA) kit (Hooke Laboratories) and performed as indicated in the manufacturer's instruction. […] Animals were weighed and monitored daily and behavioral impairment was quantified based on the clinical scale. *=p≦0.05.
C57BL/6 mice were immunized subcutaneously at both sides of their hind limbs with myelin oligodendrocyte glycoprotein (MOG)/Complete Freund's Adjuvant (CFA) kit (Hooke Laboratories) and performed as in manufacturer's instruction. […] Animals were weighed and monitored daily and behavioral impairment was quantified based on the clinical scale. […]
On day 0, six-week old male C57BL/6 mice (Hong Kong University of Science and Technology, Animal Care facility) were immunized with 100 μg of myelin oligodendrocyte glycoprotein peptide (MOG35-55)/complete Freund's Adjuvant (CFA) emulsion kit (Hooke Laboratories) was injected subcutaneously at both sides of the tail base. […] The animals were also weighed and the neurological impairment was quantified daily based on the previously published criteria. […]

C=C(C)[C@@H]1CC[C@]2(/C=N/O)CC[C@]3(C)C(CCC4[C@@]5(C)CCC(=O)[C@@](C)(CO)[C@@H]5CC[C@]43C)C12 (stereo partly drawn) [DA021]
decrease of IL-17 in response to exogenous compound [1]: 89% | reduction in the amount of IL-17 [1]: 68% | EAE scores vs vehicle-treated EAE mice [2]: marked decrease in the EAE scores

C=C(C)[C@@H]1CC[C@]2(C(=O)O)CC[C@]3(C)C(CC[C@@H]4[C@@]5(C)CC[C@H](O[C@@H]6OC[C@H](O)[C@H](O)[C@H]6O[C@@H]6O[C@@H](C)[C@H](O)[C@@H](O)[C@H]6O)[C@@](C)(CO)[C@@H]5CC[C@]43C)[C@@H]12 (stereo partly drawn) [DA001, 3-O-[α-L-rhamnopyranosyl-(1→2)-α-L-arabinopyranosyl]-3,23-dihydroxy-20(29)-lupen-28-oic acid]
decrease of IL-17 in response to exogenous compound [1]: 51% | reduction in the amount of IL-17 [1]: 65% | EAE scores vs vehicle-treated EAE mice [2]: marked decrease in EAE scores

From US9029414B2, “Triterpenoid compounds and methods of use thereof” (Biotechnology Research Corporation, priority 2008, dated 2015)
